From patent US8758769B2, “Composition for preventing and treating acetaminophen inducing liver injury comprising the protein extract from Porphyra yezoensis” (Pukyong National University Industry Academic Cooperation …, priority 2006, dated 2014)

Tests used:
GOT and GPT in the serum = assay: GOT and GPT in serum; assay type: in vivo, rat; details: rats, AAP 700 mg/kg, 24 hours
Method: GOT and GPT in the serum as liver function indicators are enzymes which reflect the change and necrosis of the liver cell and spilled in great quantities in the blood when damaging the liver tissue. GOT/GPT in the serum are measured by using a kit for measuring GOT (Glutamic oxaloacetic transaminase) and GPT (Glutamic pyruvic transaminase) activity measuring serum transaminase (Shinyang Chemistry, Republic of Korea) manufactured by Retiman-Frankle's manner through a spectrum photometer (Ultrospec 2001 pro. amersham phamasia biotech, United Kingdom) at 505 nm and then the result is shown in FIG. 4.

HepG2 cell = assay: Cell apoptosis of the liver cell line by AAP (DAPI dyeing, DNA fragmentation); assay type: cell-based; details: HepG2, culture for 24 hours with AAP
Source text: Accordingly, to confirm that the cell proliferation inhibition effect by AAP is a phenomenon by the cell apoptosis, the cell with AAP and cell with no AAP are washed by PBS by means of the characteristics in which only DNA within the cell nucleus, especially, only the cell apoptosis DNA is dyed. Thereafter, the cells are dyed by the DAPI solution and then observed by a fluorescent microscopy.
Specifically, the HepG2 cell treated by the seaweed protein is washed by PBS, fixed at the room temperature for 10 minutes by 3.7% of paraformaldehyde, and dyed by means of the 4,6-diamindino-2-phenylindole (DAPI)(sigma) solution as fluorescent materials for 10 minutes. These cells are again washed by twice and the form change of the nucleus thereof is compared with that of the normal group by means of a fluorescence microscope.
To examine the DNA fragmentation phenomenon, the seaweed protein purified by the example 1 is added to the liver cell by concentration (0˜100[…]/□), then cultured for 24 hours, and thereafter mixed with the homogenate (nuclear lysis buffer, 100 mM NaCl2, 40 mM Tris-Cl, pH 7.4, 20 mM EDTA, 0.5% SDS). […] 10[…] of DNA is treated by an electrophoresis manner (50V, 2 hours) in the agarose cell, dyed by editium bromide, and measured by means of ultraviolet rays and the like.

CC(=O)Nc1ccc(O)cc1 [AAP, Acetaminophen]
GPT in serum (GOT and GPT in the serum; control group 28.83±7.9): 44.83±11.7 karmen
GOT in serum (GOT and GPT in the serum; control group 158.97±13.4): 187.95±20.7 karmen
Cell apoptosis by DAPI dyeing (FIG. 8) (HepG2 cell): many cell apoptosis modes with the red color are formed
DNA fragmentation in liver cell (FIG. 8) (HepG2 cell): The DNA fractions are confirmed identically
